Paper PMC4491433 (Molecular and cellular endocrinology, 2010)

Assays:
[1] = biological target: T1, human FSH receptor (hFSHR) (Homo sapiens, UniProt P23945); assay: HTRF cAMP inhibition; type: cell-based
T1 sequence (P23945 18-695): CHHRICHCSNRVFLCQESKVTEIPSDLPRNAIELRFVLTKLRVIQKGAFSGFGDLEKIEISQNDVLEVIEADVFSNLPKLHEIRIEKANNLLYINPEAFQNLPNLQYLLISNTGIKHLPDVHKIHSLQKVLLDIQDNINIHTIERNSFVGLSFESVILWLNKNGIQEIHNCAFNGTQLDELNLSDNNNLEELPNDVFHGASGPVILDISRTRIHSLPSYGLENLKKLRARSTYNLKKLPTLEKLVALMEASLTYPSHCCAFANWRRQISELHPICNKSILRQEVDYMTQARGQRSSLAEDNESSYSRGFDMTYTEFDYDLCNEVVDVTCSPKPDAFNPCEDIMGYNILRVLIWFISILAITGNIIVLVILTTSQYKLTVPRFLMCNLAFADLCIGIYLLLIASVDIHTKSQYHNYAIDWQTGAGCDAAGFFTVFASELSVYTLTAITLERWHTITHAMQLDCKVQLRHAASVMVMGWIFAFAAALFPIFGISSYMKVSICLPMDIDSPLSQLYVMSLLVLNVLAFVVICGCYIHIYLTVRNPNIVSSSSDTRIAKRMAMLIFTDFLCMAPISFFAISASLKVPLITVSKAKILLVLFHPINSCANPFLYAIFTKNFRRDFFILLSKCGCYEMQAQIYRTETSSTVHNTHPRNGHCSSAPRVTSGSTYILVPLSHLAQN

hLH receptor = hLH receptor (Homo sapiens, UniProt P22888); assay: inhibition of LH EC80 response at hLH receptor; type: cell-based
hLH receptor, sequence (P22888 27-699): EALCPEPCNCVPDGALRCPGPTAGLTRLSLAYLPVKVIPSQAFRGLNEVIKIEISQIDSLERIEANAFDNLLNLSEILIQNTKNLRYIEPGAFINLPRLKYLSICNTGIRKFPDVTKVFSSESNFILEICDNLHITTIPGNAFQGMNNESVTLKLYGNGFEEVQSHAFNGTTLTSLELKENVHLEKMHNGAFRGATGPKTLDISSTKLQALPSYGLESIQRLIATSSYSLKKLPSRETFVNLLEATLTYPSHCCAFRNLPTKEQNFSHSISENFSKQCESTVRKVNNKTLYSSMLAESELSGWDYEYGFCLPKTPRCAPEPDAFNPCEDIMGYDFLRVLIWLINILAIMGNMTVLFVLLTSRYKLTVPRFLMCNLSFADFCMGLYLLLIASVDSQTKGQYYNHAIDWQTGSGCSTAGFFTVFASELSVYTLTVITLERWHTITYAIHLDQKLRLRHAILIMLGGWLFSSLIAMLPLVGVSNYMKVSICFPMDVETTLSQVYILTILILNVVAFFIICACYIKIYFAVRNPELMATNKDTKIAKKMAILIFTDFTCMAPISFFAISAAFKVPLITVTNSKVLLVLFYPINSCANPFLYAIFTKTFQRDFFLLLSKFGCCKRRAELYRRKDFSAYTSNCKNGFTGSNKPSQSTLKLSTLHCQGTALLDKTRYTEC

Compound `COc1ccc(C(=O)Nc2ccc(C(C)(C)C#N)cc2)cc1OC` [ADX61623] has an IC50 [1] of 700 ± 200 nM and an IC50 (hLH receptor) of 3400 ± 800 nM.
